According to patent US20100160356A1, “NOVEL CYCLOBUTYL COMPOUNDS AS KINASE INHIBITORS” (priority 2006, published 2010):
Structures can show the parent of a compound that is named as a salt.

Columns and labels:
VEGF-2 = VEGF-2 (Homo sapiens, UniProt P35968); assay: Inhibition of VEGF-2 (flashplate assay); format: biochemical; details: flashplate method
Method: (§1) The test plates used are 384-well flashplate microtitre plates from Perkin Elmer (USA). The components of the kinase reaction are pipetted into the assay plate. The VEGF-2 kinase is incubated for 3 hr. with radioactively labelled ^33P-ATP in the presence and absence of test substances in a total volume of 100 μl at room temperature together with biotinylated poly(Glu, Tyr)4:1. The reaction is terminated using 25 μl of a 200 mM EDTA solution. After incubation for a further 30 min at room temperature, the supernatants are removed by suction, and the wells are washed three times with 100 μl of 0.9% NaCl solution each time. The radioactivity is measured using a Topcount scintillation counter (PerkinElmer, USA). IC50 values are calculated using the RS1 computer program.

PDGFRβ = PDGFRβ (Homo sapiens, UniProt P09619); assay: Inhibition of PDGFRβ (flashplate assay); format: biochemical; details: flashplate method
Method: as §1, with “are 96-well” for “are 384-well”, “The PDGFRβ” for “The VEGF-2”, “temperature (here autophosphorylation of the kinase).” for “temperature together with biotinylated poly(Glu, Tyr)4:1.”, “using 150” for “using 25”, “a 60” for “a 200”, “with 200” for “with 100”

[1] = molecular target: T1, FAK (focal adhesion kinase) (Homo sapiens, UniProt Q05397); assay: Inhibition of FAK (ELISA assay), FAK phosphorylation in cells; format: cell-based; details: human cells with FAK amplification
T1 construct: endogenous in cells; host or cells: Calu-6 or HT-29
T1 sequence (Q05397 whole entry): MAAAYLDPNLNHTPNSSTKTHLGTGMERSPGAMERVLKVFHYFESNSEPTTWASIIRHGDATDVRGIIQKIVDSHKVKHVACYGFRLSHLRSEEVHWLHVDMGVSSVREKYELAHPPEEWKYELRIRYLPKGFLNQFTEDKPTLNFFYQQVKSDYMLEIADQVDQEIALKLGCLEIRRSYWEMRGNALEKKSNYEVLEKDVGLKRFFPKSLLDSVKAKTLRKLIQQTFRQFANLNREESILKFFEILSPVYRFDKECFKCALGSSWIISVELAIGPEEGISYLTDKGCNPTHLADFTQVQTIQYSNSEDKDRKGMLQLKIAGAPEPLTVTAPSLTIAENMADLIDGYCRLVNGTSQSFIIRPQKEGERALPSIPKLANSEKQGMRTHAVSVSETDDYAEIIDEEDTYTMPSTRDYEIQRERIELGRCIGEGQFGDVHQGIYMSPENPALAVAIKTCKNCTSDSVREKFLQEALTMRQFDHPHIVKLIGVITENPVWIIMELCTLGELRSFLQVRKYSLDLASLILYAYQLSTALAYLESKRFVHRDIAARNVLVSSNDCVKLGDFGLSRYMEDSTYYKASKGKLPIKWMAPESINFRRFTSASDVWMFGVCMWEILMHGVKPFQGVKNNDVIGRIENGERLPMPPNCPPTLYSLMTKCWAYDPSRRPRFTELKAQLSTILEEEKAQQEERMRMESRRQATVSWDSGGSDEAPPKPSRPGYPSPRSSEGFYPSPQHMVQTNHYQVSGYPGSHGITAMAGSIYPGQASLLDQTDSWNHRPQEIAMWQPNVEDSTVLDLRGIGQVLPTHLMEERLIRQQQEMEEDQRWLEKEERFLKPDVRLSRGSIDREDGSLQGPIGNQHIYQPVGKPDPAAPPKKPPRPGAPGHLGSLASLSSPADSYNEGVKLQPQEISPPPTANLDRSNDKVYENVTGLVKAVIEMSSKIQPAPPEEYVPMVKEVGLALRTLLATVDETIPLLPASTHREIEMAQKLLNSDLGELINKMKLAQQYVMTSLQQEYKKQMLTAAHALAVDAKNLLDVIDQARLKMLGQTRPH
Method: Activated FAK promotes the invasive growth of tumour cells and inhibits anoikis.
The amount of phosphorylated FAK is determined by a specific capture ELISA or an analogous LUMINEX assay. FAK from cell lysates is bound to a 96-well ELISA plate or LUMINEX beads by means of a specific antibody (“capturing”), and the tyrosine phosphorylation is detected using a biotin-labelled anti-phosphotyrosine antibody and a streptavidin-peroxidase conjugate by a chemiluminescence method or by means of a fluorescence-labelled anti-phosphotyrosine antibody.
For determination of the activity of kinase inhibitors, cells are pretreated with increasing concentrations of these compounds for 45 min, and the FAK phosphorylation is then determined. As internal control, a concentration series of a reference inhibitor is measured.

IGF1 receptor (IGF1R) = molecular target: T2, IGF1 receptor (IGF1R) (Homo sapiens, UniProt P08069); assay: Inhibition of IGF1R (ELISA assay), IGF1-stimulated autophosphorylation in cells; format: cell-based; details: human tumour cells stimulated with IGF1, read-out: IC50 IGF (ELISA)
T2 construct: endogenous in cells; host or cells: MCF-7 or Calu-6
T2 sequence (P08069 31-1367): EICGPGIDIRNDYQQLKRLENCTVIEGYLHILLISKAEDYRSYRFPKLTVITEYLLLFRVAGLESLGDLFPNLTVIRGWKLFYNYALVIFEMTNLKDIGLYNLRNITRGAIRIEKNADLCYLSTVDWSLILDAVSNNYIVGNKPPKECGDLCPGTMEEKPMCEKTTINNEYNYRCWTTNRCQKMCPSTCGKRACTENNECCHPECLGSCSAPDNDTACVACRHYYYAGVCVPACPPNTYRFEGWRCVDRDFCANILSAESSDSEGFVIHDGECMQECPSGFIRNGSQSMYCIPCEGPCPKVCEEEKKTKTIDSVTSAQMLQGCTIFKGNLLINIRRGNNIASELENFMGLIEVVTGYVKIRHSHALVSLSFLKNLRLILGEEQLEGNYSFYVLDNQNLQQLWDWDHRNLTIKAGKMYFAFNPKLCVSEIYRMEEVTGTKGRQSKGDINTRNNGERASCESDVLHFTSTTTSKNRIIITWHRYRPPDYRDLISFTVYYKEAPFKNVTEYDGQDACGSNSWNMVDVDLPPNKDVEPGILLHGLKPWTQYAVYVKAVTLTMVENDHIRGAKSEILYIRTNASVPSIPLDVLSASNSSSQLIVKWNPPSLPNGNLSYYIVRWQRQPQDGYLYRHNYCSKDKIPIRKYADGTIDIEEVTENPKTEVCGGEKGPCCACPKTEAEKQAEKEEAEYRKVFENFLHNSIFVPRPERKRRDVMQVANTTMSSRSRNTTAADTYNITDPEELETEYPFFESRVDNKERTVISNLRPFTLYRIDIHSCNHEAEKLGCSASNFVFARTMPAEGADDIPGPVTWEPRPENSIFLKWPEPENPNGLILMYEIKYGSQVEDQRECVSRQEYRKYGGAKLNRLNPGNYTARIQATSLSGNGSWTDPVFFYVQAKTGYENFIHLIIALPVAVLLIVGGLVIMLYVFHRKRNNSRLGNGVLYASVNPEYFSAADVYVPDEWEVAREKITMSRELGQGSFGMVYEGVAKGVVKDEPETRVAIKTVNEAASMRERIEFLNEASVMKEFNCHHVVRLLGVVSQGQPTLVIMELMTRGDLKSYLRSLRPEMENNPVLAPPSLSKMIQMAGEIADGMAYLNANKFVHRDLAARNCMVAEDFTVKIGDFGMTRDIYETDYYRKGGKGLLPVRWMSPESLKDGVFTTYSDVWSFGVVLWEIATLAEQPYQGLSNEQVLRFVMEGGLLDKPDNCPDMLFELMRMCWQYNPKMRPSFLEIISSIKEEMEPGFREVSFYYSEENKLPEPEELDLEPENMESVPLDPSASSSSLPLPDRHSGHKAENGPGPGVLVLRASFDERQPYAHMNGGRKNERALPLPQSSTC
Method: The stimulation induces an autophosphorylation of tyrosine residues in the cytoplasmatic IGF1R domain, which triggers signal transduction cascades, which result in inhibition of apoptosis and proliferation of the cells.
The amount of phosphorylated IGF1R is determined by a receptor-specific capture ELISA or an analogous LUMINEX assay. The IGF1R from cell lysates is bound to a 96-well ELISA plate or LUMINEX beads by means of a specific antibody (“capturing”), and the tyrosine phosphorylation is detected using a biotin-labelled anti-phosphotyrosine antibody and a streptavidin-peroxidase conjugate by a chemiluminescence method or by means of a fluorescence-labelled anti-phosphotyrosine antibody.
For determination of the activity of kinase inhibitors, cells are pretreated with increasing concentrations of these compounds for 45 min and subsequently stimulated using IGF1 for 5 min. As internal control, the biological activity of the ligand IGF1 is checked, and a concentration series of an IGF1R reference inhibitor is measured.

TGFβR1 = molecular target: T3, TGFβR1 (Homo sapiens, UniProt P36897); assay: Inhibition of TGFβR1 (flashplate assay); format: biochemical; details: flashplate method
T3 sequence (P36897 34-503): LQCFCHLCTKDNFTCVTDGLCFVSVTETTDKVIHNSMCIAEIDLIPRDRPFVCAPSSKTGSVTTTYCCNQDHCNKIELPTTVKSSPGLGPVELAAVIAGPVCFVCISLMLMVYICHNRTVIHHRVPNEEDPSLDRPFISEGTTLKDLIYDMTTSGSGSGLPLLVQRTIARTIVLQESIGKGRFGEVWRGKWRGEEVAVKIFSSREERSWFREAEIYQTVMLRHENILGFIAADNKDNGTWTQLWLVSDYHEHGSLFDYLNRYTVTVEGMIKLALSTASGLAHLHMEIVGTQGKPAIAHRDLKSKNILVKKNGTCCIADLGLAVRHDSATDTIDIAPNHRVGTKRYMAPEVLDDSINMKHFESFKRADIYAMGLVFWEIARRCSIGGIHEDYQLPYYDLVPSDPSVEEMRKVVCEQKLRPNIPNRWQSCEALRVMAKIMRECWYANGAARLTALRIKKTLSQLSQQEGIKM
Method: The test is carried out as described in Example B1b for IGF1R. A biotinylated is added to the TGFβR1 kinase.
The kinase assay is carried out as a 384-well flashplate assay.
The components of the kinase reaction are pipetted into the assay plate. The TGFβR1 kinase is incubated for 45 min with radioactively labelled ^33P-ATP in the presence and absence of test substances together with biotinylated substrate in a total volume of 35 μl. The reaction is terminated using 25 μl of 200 mM EDTA solution, removed by suction after 30 min at room temperature, and the wells are washed with three times with 100 μl of 0.9% NaCl solution each time. The radioactivity is measured using a Topcount scintillation counter (PerkinElmer, USA). IC50 values are calculated using the RS1 computer program.

TIE2 = TIE2 (Homo sapiens, UniProt Q02763); assay: Inhibition of TIE2 (flashplate assay); format: biochemical; details: flashplate method
TIE2, sequence (Q02763 23-1124, species assumed): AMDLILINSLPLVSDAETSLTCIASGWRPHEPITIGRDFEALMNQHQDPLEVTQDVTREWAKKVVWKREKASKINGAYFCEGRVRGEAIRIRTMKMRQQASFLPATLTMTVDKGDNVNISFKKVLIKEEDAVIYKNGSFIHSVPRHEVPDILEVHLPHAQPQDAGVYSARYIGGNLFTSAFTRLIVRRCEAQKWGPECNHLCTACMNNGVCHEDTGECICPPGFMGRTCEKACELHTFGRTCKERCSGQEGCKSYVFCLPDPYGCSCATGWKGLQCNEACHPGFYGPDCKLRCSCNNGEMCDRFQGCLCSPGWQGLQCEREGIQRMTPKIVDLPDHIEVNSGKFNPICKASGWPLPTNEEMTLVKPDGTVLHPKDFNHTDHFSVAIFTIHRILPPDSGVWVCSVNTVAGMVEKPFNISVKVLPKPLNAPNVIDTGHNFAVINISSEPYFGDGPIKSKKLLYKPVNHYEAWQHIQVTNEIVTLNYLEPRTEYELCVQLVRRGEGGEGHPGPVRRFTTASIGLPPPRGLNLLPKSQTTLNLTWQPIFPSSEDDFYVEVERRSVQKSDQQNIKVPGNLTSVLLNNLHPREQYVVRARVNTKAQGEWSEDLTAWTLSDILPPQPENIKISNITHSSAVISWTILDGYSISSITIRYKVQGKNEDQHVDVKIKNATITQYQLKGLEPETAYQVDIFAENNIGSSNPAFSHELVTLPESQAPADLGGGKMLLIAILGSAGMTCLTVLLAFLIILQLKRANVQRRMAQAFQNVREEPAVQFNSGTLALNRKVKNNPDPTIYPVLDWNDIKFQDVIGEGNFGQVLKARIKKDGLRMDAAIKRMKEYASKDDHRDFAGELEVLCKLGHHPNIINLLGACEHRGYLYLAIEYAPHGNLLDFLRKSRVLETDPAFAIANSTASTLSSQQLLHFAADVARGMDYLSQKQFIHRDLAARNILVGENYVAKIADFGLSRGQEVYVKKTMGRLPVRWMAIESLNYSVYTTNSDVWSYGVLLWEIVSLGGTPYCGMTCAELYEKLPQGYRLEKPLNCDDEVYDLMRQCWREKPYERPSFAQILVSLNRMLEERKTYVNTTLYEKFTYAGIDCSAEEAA
Method: B4: inhibition of T1E2 (Flashplate Assay)
as §1, with “TIE2” for “VEGF-2”

IGF1R = IGF1R (Homo sapiens, UniProt P08069); assay: Inhibition of IGF1R (flashplate assay); format: biochemical; details: flashplate method
IGF1R, sequence (P08069 31-1367, species assumed): as the sequence (P08069 31-1367) above
Method: as §1, with “are 96-well” for “are 384-well”, “The IGF1R” for “The VEGF-2”, “for 1” for “for 3”

VEGF-2, sequence (P35968 20-1356): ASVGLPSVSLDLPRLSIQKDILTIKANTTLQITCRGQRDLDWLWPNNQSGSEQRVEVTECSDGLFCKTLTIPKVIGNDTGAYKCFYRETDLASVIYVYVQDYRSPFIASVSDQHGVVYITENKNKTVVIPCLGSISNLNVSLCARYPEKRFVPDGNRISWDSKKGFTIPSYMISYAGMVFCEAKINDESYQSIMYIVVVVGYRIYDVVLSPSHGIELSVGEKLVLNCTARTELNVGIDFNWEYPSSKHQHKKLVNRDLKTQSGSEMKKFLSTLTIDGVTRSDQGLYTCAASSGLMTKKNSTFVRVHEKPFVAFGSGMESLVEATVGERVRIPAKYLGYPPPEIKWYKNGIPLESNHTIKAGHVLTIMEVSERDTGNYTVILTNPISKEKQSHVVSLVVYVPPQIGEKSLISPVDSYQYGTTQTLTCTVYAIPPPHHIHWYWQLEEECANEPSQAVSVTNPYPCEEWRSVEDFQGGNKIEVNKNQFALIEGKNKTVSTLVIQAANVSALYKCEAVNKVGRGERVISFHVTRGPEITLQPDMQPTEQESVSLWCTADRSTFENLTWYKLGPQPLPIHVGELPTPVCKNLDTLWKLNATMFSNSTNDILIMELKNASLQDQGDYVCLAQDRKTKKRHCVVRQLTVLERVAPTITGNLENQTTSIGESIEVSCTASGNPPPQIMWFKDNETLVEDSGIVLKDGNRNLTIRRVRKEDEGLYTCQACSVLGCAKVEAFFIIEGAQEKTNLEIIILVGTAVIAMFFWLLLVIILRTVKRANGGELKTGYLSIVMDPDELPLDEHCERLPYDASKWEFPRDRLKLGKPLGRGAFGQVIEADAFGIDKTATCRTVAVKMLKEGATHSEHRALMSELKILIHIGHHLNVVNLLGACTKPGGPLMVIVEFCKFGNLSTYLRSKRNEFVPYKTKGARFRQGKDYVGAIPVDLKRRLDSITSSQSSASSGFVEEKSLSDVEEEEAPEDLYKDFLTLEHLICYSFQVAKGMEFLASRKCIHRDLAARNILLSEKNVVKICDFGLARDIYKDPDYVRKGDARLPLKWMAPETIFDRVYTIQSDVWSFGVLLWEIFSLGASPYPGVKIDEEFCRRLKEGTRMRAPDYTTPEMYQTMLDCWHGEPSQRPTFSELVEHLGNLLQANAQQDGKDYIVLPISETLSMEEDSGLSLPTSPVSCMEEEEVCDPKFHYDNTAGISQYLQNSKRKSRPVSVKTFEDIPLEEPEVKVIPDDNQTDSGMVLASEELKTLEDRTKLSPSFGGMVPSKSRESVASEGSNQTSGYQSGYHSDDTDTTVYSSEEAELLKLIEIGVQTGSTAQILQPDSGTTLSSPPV

melting point	IC50 [1]	IC50 (IGF1 receptor (IGF1R))	IC50 (TGFβR1)	Structure (SMILES)	also measured
241 to 242.5 °C				NCC1CC(n2cc(I)c3c(N)ncnc32)C1 (stereo not shown) (as salt: HCl) [Compound 52]	
186.5 to 189 °C				N#Cc1cccc(-c2cn(C3CC(CN)C3)c3ncnc(N)c23)c1 (stereo not shown) (as salt: TFA) [Compound 57]	
		27000 nM	150 nM	NCC1CC(n2cc(-c3ccncc3)c3c(N)ncnc32)C1 (stereo not shown) [Compound 43]	
		13000 nM	950 nM	NCC1CC(n2cc(-c3cccnc3)c3c(N)ncnc32)C1 (stereo not shown) [Compound 44]	
324 to 325.5 °C	1900 nM	5300 nM	1600 nM	NCC1CC(n2cc(-c3ccc4c(c3)OCCO4)c3c(N)ncnc32)C1 (stereo not shown) [Compound 53]	IC50 (VEGF-2): 1400 nM; IC50 (PDGFRβ): 1100 nM; IC50 (TIE2): 2000 nM
	28000 nM			Nc1ncnc2c1c(-c1ccc3c(c1)OCCO3)cn2C1CC(CN2CCCC2)C1 (stereo not shown) [Compound 54]	
	24000 nM	3500 nM		NCC1CC(n2cc(-c3ccc4ccn(Cc5ccccc5)c4c3)c3c(N)ncnc32)C1 (stereo not shown) [Compound 55]	IC50 (VEGF-2): 190 nM; IC50 (IGF1R): 1600 nM; IC50 (TIE2): 680 nM
	25000 nM		6100 nM	N#Cc1cccc(-c2cn(C3CC(CN)C3)c3ncnc(N)c23)c1 (stereo not shown) [Compound 57]	
			1100 nM	N#Cc1ccc(-c2cn(C3CC(CN)C3)c3ncnc(N)c23)cc1N (stereo not shown) [Compound 58]	IC50 (VEGF-2): 610 nM; IC50 (PDGFRβ): 430 nM
	4100 nM		8300 nM	N#Cc1ccc(-c2cn(C3CC(CN)C3)c3ncnc(N)c23)cc1F (stereo not shown) [Compound 59]	IC50 (PDGFRβ): 620 nM
			530 nM	NCC1CC(n2cc(-c3cccc(C(N)=O)c3)c3c(N)ncnc32)C1 (stereo not shown) [Compound 60]	
156 to 159 °C	630 nM		55 nM	NCC1CC(n2cc(-c3ccc4occc4c3)c3c(N)ncnc32)C1 (stereo not shown) [Compound 63]	IC50 (VEGF-2): 290 nM; IC50 (PDGFRβ): 310 nM; IC50 (TIE2): 1800 nM
	420 nM		45 nM	NCC1CC(n2cc(-c3cccc4occc34)c3c(N)ncnc32)C1 (stereo not shown) [Compound 65]	IC50 (VEGF-2): 1320 nM; IC50 (PDGFRβ): 940 nM; IC50 (TIE2): 2900 nM
	8000 nM	25000 nM	39 nM	NCC1CC(n2cc(-c3cnc4ccccc4c3)c3c(N)ncnc32)C1 (stereo not shown) [Compound 69]	
		21000 nM	5500 nM	NCC1CC(n2cc(C(Cl)=CCOCc3ccccc3)c3c(N)ncnc32)C1 (stereo not shown) [Compound 71]	

More lines, now with the values behind:

Structure (SMILES)	melting point	IC50 [1]	IC50 (IGF1 receptor (IGF1R))	IC50 (TGFβR1)	also measured
C[Si](C)(COc1cccc(-c2cn(C3CC(CN)C3)c3ncnc(N)c23)c1)c1ccccc1 (stereo not shown) (as salt: TFA) [Compound 8]	172 to 174.5 °C				
C[Si](C)(C)COc1cccc(-c2cn(C3CC(CN)C3)c3ncnc(N)c23)c1 (stereo not shown) (as salt: TFA) [Compound 9]	83 to 84 °C				
NCC1CC(n2cc(-c3cc4ccccc4o3)c3c(N)ncnc32)C1 (stereo not shown) (as salt: TFA) [Compound 37]	202.5 to 204.5 °C				
NCC1CC(n2cc(-c3ccco3)c3c(N)ncnc32)C1 (stereo not shown) (as salt: TFA) [Compound 38]	207.5 to 209 °C				
NCC1CC(n2cc(-c3cccs3)c3c(N)ncnc32)C1 (stereo not shown) (as salt: TFA) [Compound 41]	206 to 207.5 °C				
NCC1CC(n2cc(-c3ccncc3)c3c(N)ncnc32)C1 (stereo not shown) (as salt: TFA) [Compound 43]	> 195 °C (dec.)				
CS(=O)(=O)Nc1cccc(-c2cn(C3CC(CN)C3)c3ncnc(N)c23)c1 (stereo not shown) [Compound 13]	82 to 84 °C	28000 nM			IC50 (VEGF-2): 6500 nM; IC50 (PDGFRβ): 5800 nM
CC(C)c1cccc(-c2cn(C3CC(CN)C3)c3ncnc(N)c23)c1 (stereo not shown) [Compound 16]	93 to 94.5 °C	28500 nM	22000 nM	1500 nM	
NCC1CC(n2cc(-c3cccc(C(F)(F)F)c3)c3c(N)ncnc32)C1 (stereo not shown) [Compound 17]		25000 nM		2700 nM	
NCC1CC(n2cc(-c3cccc(OC(F)(F)F)c3)c3c(N)ncnc32)C1 (stereo not shown) [Compound 18]	88 to 90 °C	17500 nM	22000 nM	1000 nM	
NCC1CC(n2cc(-c3cccc([N+](=O)[O-])c3)c3c(N)ncnc32)C1 (stereo not shown) [Compound 20]	53 to 55 °C	4000 nM		700 nM	
CC(=O)Nc1cccc(-c2cn(C3CC(CN)C3)c3ncnc(N)c23)c1 (stereo not shown) [Compound 21]		17000 nM		6500 nM	
CN(Cc1ccccc1)c1cccc(-c2cn(C3CC(CN)C3)c3ncnc(N)c23)c1 (stereo not shown) [Compound 26]	197 to 200 °C		11000 nM	1100 nM	IC50 (VEGF-2): 2700 nM
NCC1CC(n2cc(-c3ccc4c(c3)n(Cc3ccccc3)c(=O)n4Cc3ccccc3)c3c(N)ncnc32)C1 (stereo not shown) [Compound 33]	72.5 to 74 °C	27000 nM	20000 nM		IC50 (PDGFRβ): 6850 nM; IC50 (TIE2): 370 nM
NCC1CC(n2cc(-c3cccc(N(CCCCO)Cc4ccccc4)c3)c3c(N)ncnc32)C1 (stereo not shown) [Compound 61]					IC50 (TIE2): 3900 nM
